# Test results from patent US8846719B2, “Isoxazolo-pyridine derivatives” (Roche Palo Alto LLC, priority 2007, dated 2014).
# Molecular target: human GABA A receptor α5β3γ2 (Homo sapiens (Human), UniProt P18507+P31644)
# Assay: [3H]flumazenil competition binding assay, human GABA A α5β3γ2 receptors expressed in HEK293 cells
# Conditions: human receptor; displacement of [3H]flumazenil (0.5 nM); means of two determinations; read-out: hKi GABAAa5
# Procedure, shortened: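 Competition for [3H]flumazenil binding on membranes of HEK293 cells transiently transfected with human α5β3γ2 receptors, in Krebs-tris buffer pH 7.5.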
row,SMILES,Ki [nM]
1,"O=C(NCCO)c1ccc(OCc2c(-c3ccccc3)noc2C(F)(F)F)nc1 [Example 131, N-(2-Hydroxy-ethyl)-6-(3-phenyl-5-trifluoromethyl-isoxazol-4-ylmethoxy)-nicotinamide]",34
2,"CC(C)NC(=O)c1ccc(OCc2conc2-c2ccccc2)nc1 [Example 321, N-Isopropyl-6-(3-phenyl-isoxazol-4-ylmethoxy)-nicotinamide]",21.4
3,"Cc1cc(C(=O)NC2CCOCC2)cnc1OCc1c(-c2ccccc2)noc1C [Example 66, 5-Methyl-6-(5-methyl-3-phenyl-isoxazol-4-ylmethoxy)-N-(tetrahydro-pyran-4-yl)-nicotinamide]",1.4
4,"O=C(NCCO)c1ccc(OCc2conc2-c2ccccn2)nc1 [Example 363, N-(2-Hydroxy-ethyl)-6-(3-pyridin-2-yl-isoxazol-4-ylmethoxy)-nicotinamide]",19.9
5,"O=C(NC1CC1)c1ccc(OCc2conc2-c2ccccn2)nc1 [Example 360, N-Cyclopropyl-6-(3-pyridin-2-yl-isoxazol-4-ylmethoxy)-nicotinamide]",18.9
6,"O=C(NCCO)c1ccc(OCc2conc2-c2ccc(F)cn2)nc1 [Example 370, 6-[3-(5-Fluoro-pyridin-2-yl)-isoxazol-4-ylmethoxy]-(2-hydroxy-ethyl)-nicotinamide]",21.4
7,"Cc1onc(-c2ccc(F)cn2)c1COc1ccc(C(=O)NCC2CC2)cn1 [Example 292, Cyclopropylmethyl-6-[3-(5-fluoro-pyridin-2-yl)-5-methyl-isoxazol-4-ylmethoxy]-nicotinamide]",0.4
8,"Cc1onc(-c2ccc(F)cn2)c1COc1ccc(C(=O)NC2CC2)cn1 [Example 290, Cyclopropyl-6-[3-(5-fluoro-pyridin-2-yl)-5-methyl-isoxazol-4-ylmethoxy]-nicotinamide]",0.6
9,"Cc1onc(-c2ccc(F)cc2)c1COc1ccc(C(=O)NC(C)C)cn1 [Example 107, 6-[3-(4-Fluoro-phenyl)-5-methyl-isoxazol-4-ylmethoxy]-N-isopropyl-nicotinamide]",0.7
10,"Cc1onc(-c2ccc(F)cn2)c1COc1ccc(C(=O)N[C@@H](C)C(F)(F)F)cn1 [Example 299, 6-[3-(5-Fluoro-pyridin-2-yl)-5-methyl-isoxazol-4-ylmethoxy]-N—((S)-2,2,2-trifluoro-1-methyl-ethyl)-nicotinamide]",0.5
11,"C[C@H](CO)NC(=O)c1ccc(OCc2conc2-c2ccc(F)cc2)nc1 [Example 326, 6-[3-(4-Fluoro-phenyl)-isoxazol-4-ylmethoxy]-N—((R)-2-hydroxy-1-methyl-ethyl)-nicotinamide]",27.7
12,"Cc1onc(-c2ccccc2)c1COc1ccc(C(=O)N[C@H](CO)C(C)C)cn1 [Example 206, N—((S)-1-Hydroxymethyl-2-methyl-propyl)-6-(5-methyl-3-phenyl-isoxazol-4-ylmethoxy)-nicotinamide]",1.8
13,"Cc1onc(-c2ccc(F)cn2)c1COc1ccc(C(=O)N2CCS(=O)(=O)CC2)cn1 [Example 293, (1,1-Dioxo-1,6-thiomorpholin-4-yl)-{6-[3-(5-fluoro-pyridin-2-yl)-5-methyl-isoxazol-4-ylmethoxy]-pyridin-3-yl}-methanone]",1.2
14,"Cc1onc(-c2ccccc2)c1COc1ccc(C(=O)n2ccc(=O)[nH]2)cn1 [Example 238, 1-[6-(5-Methyl-3-phenyl-isoxazol-4-ylmethoxy)-pyridine-3-carbonyl]-1,2-dihydro-pyrazol-3-one]",34.9
15,"CCOC(=O)c1ccc(OCc2c(-c3ccccc3)noc2C)nc1C [Example 72, 2-Methyl-6-(5-methyl-3-phenyl-isoxazol-4-ylmethoxy)-nicotinic acid ethyl ester]",19.3
16,"O=C(NC1CC1)c1ccc(OCc2conc2-c2ccc(F)cn2)nc1 [Example 367, Cyclopropyl-6-[3-(5-fluoro-pyridin-2-yl)-isoxazol-4-ylmethoxy]-nicotinamide]",13.5
17,"Cc1onc(-c2ccc(F)cn2)c1COc1ccc(C(=O)N2CCOCC2)cn1 [Example 296, {6-[3-(5-Fluoro-pyridin-2-yl)-5-methyl-isoxazol-4-ylmethoxy]-pyridin-3-yl}-morpholin-4-yl-methanone]",4.1

# More lines, now with the values ahead:
row,Ki [nM],SMILES
1,37.6,"CC(=O)NCCNC(=O)c1ccc(OCc2conc2-c2ccc(F)cc2)nc1 [Example 335, N-(2-Acetylamino-ethyl)-6-[3-(4-fluoro-phenyl)-isoxazol-4-ylmethoxy]-nicotinamide]"
2,1.1,"Cc1onc(-c2ccc(F)cc2)c1COc1ccc(C(=O)NC2CC2)cn1 [Example 108, N-Cyclopropyl-6-[3-(4-fluoro-phenyl)-5-methyl-isoxazol-4-ylmethoxy]-nicotinamide]"
3,10.4,"Cc1onc(-c2ccc(F)cc2)c1COc1ccc(C(=O)N2CCSCC2)cn1 [Example 111, {6-[3-(4-Fluoro-phenyl)-5-methyl-isoxazol-4-ylmethoxy]-pyridin-3-yl}-thiomorpholin-4-yl-methanone]"
4,1,"Cc1onc(-c2ccccc2)c1COc1ccc(C(=O)NC(C)CO)cn1 (centres unmarked) [Example 190, N-(2-Hydroxy-1-methyl-ethyl)-6-(5-methyl-3-phenyl-isoxazol-4-ylmethoxy)-nicotinamide]"
5,0.6,"Cc1onc(-c2ccccc2)c1COc1ccc(C(=O)NC(C)C(F)(F)F)cn1 (centres unmarked) [Example 234, 6-(5-Methyl-3-phenyl-isoxazol-4-ylmethoxy)-N-(2,2,2-trifluoro-1-methyl-ethyl)-nicotinamide]"
6,0.8,"Cc1onc(-c2ccc(Cl)cc2)c1COc1ccc(C(=O)NC2CCOCC2)cn1 [Example 121, 6-[3-(4-Chloro-phenyl)-5-methyl-isoxazol-4-ylmethoxy]-N-(tetrahydro-pyran-4-yl)-nicotinamide]"
7,2,"Cc1onc(-c2ccccc2)c1COc1ccc(C(=O)NCC(F)F)cn1 [Example 11, N-(2,2-Difluoro-ethyl)-6-(5-methyl-3-phenyl-isoxazol-4-ylmethoxy)-nicotinamide]"
8,28.3,"O=C(NCC1CC1)c1ccc(OCc2c(-c3ccccc3)noc2C(F)(F)F)nc1 [Example 132, N-Cyclopropylmethyl-6-(3-phenyl-5-trifluoromethyl-isoxazol-4-ylmethoxy)-nicotinamide]"
9,12.4,"O=C(NC1CC1)c1ccc(OCc2conc2-c2ccc(Cl)cc2)nc1 [Example 343, 6-[3-(4-Chloro-phenyl)-isoxazol-4-ylmethoxy]-N-cyclopropyl-nicotinamide]"
10,2.3,"CC[C@H](CO)NC(=O)c1ccc(OCc2c(-c3ccccc3)noc2C)nc1 [Example 209, N—((R)-1-Hydroxymethyl-propyl)-6-(5-methyl-3-phenyl-isoxazol-4-ylmethoxy)-nicotinamide]"
11,2.4,"Cc1onc(-c2ccc(F)cc2F)c1COc1ccc(C(=O)NC(C)C)cn1 [Example 263, 6-[3-(2,4-Difluoro-phenyl)-5-methyl-isoxazol-4-ylmethoxy]-N-isopropyl-nicotinamide]"
12,38,"Cc1onc(-c2ccccc2)c1COc1ccc(C(=O)Nc2ccccc2)cn1 [Example 48, 6-(5-Methyl-3-phenyl-isoxazol-4-ylmethoxy)-N-phenyl-nicotinamide]"
13,2.2,"Cc1onc(-c2ccccc2)c1COc1ccc(C(=O)NCCCO)cn1 [Example 219, N-(3-Hydroxy-propyl)-6-(5-methyl-3-phenyl-isoxazol-4-ylmethoxy)-nicotinamide]"
14,9.4,"CCN1CCC(NC(=O)c2ccc(OCc3c(-c4ccccc4)noc3C)nc2)CC1 [Example 35, N-(1-Ethyl-piperidin-4-yl)-6-(5-methyl-3-phenyl-isoxazol-4-ylmethoxy)-nicotinamide]"
15,2.8,"Cc1onc(-c2ccccc2)c1COc1ccc(C(=O)NC2CCC2)cn1 [Example 28, N-Cyclobutyl-6-(5-methyl-3-phenyl-isoxazol-4-ylmethoxy)-nicotinamide]"
16,10.6,"O=C(NC1CCOCC1)c1ccc(OCc2conc2-c2ccc(F)cc2)nc1 [Example 324, 6-[3-(4-Fluoro-phenyl)-isoxazol-4-ylmethoxy]-N-(tetrahydro-pyran-4-yl)-nicotinamide]"
17,7.7,"Cc1onc(-c2ccccc2)c1COc1ccc(C(=O)NCC(C)(C)CO)cn1 [Example 188, N-(3-Hydroxy-2,2-dimethyl-propyl)-6-(5-methyl-3-phenyl-isoxazol-4-ylmethoxy)-nicotinamide]"
18,19.8,"CNC(=O)c1ccc(OCc2c(-c3ccc(F)cc3)noc2C(F)(F)F)nc1 [Example 137, 6-[3-(4-Fluoro-phenyl)-5-trifluoromethyl-isoxazol-4-ylmethoxy]-N-methyl-nicotinamide]"
19,7.3,"CC(C)NC(=O)c1ccc(OCc2conc2-c2ccc(F)cc2)nc1 [Example 323, 6-[3-(4-Fluoro-phenyl)-isoxazol-4-ylmethoxy]-N-isopropyl-nicotinamide]"
20,8.4,"Cc1onc(-c2ccccc2)c1COc1ccc(C(=O)NCCNC(=O)OC(C)(C)C)cn1 [Example 217, (2-{[6-(5-Methyl-3-phenyl-isoxazol-4-ylmethoxy)-pyridine-3-carbonyl]-amino}-ethyl)-carbamic acid tert-butyl ester]"
21,14.2,"COC(=O)c1ccc(OCc2c(-c3ccccc3)noc2C)nc1 [Example 7, 6-(5-Methyl-3-phenyl-isoxazol-4-ylmethoxy)-nicotinic acid methyl ester]"
22,2.9,"Cc1onc(-c2ccccc2)c1COc1ccc(C(=O)NC2(C#N)CC2)cn1 [Example 243, N-(1-Cyano-cyclopropyl)-6-(5-methyl-3-phenyl-isoxazol-4-ylmethoxy)-nicotinamide]"
23,21.6,"Cc1onc(-c2ccccc2)c1COc1ccc(C(=O)NCc2cc(C3CC3)[nH]n2)cn1 [Example 20, N-(5-Cyclopropyl-1H-pyrazol-3-ylmethyl)-6-(5-methyl-3-phenyl-isoxazol-4-ylmethoxy)-nicotinamide]"
24,3.2,"Cc1cccc(-c2noc(C)c2COc2ccc(C(=O)NC3CCOCC3)cn2)c1 [Example 249, 6-(5-Methyl-3-m-tolyl-isoxazol-4-ylmethoxy)-N-(tetrahydro-pyran-4-yl)-nicotinamide]"
